Measured values taken from ChEMBL document CHEMBL5390201, “The Natural Alkaloid (-)-N-Hydroxyapiosporamide Suppresses Colorectal Tumor Progression as an NF-κB Pathway Inhibitor by Targeting the TAK1-TRAF6 Complex” (J Nat Prod, 2023).
Calls of active or inactive are those of the source. The calls are words filed in the database; no cut-off is given here.

Key:
[1] = molecular target: T1, Nuclear factor NF-kappa-B complex (Homo sapiens) (UniProt Q00653+P19838+Q04206); experiment: Inhibition of TNF-alpha induced NFkappaB activation in human HCT-116 cells assessed as inhibition of p65 nuclear translocation at 10 uM pretreated for 6 hrs followed by TNFalpha stimulation for 15 mins by immunohistochemical analysis; type: cell-based; conditions: time 6.25 hrs
T1 sequence (P19838 whole entry, looked up): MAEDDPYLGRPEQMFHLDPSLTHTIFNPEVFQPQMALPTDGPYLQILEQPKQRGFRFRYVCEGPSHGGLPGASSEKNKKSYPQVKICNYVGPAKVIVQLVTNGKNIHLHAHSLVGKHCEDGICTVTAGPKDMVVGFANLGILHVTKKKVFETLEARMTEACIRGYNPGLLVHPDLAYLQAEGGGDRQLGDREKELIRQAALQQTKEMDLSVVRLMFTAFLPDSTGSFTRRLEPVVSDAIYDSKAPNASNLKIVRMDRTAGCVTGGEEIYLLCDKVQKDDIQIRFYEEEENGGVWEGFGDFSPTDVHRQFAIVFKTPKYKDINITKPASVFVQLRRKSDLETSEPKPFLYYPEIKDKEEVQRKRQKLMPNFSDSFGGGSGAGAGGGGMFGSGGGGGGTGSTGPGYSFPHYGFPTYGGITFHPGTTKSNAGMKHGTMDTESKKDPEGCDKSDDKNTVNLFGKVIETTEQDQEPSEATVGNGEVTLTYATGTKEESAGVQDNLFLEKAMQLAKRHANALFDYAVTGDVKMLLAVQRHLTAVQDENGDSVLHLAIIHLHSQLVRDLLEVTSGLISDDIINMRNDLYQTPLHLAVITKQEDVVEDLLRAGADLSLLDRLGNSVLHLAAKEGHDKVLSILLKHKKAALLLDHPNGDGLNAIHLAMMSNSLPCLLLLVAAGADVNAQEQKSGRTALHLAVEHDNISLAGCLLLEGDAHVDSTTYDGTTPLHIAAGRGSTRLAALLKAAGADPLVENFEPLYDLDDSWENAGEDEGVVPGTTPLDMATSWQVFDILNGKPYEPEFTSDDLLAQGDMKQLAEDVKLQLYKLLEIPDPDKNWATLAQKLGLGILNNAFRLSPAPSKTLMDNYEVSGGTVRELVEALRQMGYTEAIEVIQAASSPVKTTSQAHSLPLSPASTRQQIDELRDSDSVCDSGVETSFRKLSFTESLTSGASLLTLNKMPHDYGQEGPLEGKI
T1 sequence (Q00653 whole entry, looked up): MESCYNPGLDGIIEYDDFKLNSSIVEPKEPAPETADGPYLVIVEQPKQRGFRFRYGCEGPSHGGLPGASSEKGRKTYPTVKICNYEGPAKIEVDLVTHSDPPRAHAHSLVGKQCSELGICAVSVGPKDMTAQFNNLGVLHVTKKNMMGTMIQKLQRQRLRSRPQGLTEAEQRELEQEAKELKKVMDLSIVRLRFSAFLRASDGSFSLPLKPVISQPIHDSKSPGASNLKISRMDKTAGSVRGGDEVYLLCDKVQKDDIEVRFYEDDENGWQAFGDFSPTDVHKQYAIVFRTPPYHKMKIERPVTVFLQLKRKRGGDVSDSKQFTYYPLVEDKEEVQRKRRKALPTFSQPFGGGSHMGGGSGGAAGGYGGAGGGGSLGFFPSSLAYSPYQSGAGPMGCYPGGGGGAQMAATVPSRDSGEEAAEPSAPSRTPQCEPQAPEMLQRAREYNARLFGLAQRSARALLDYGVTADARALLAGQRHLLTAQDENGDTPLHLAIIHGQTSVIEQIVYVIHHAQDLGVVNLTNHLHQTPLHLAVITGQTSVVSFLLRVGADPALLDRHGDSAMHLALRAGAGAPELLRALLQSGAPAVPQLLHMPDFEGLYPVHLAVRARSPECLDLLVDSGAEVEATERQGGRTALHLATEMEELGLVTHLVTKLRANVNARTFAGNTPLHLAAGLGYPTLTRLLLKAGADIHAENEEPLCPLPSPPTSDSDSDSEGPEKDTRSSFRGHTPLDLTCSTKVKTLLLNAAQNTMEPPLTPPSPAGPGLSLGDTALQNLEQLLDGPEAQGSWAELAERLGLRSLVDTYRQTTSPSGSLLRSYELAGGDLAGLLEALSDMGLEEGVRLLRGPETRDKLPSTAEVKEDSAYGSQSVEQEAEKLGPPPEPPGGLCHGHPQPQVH
T1 sequence (Q04206 whole entry, looked up): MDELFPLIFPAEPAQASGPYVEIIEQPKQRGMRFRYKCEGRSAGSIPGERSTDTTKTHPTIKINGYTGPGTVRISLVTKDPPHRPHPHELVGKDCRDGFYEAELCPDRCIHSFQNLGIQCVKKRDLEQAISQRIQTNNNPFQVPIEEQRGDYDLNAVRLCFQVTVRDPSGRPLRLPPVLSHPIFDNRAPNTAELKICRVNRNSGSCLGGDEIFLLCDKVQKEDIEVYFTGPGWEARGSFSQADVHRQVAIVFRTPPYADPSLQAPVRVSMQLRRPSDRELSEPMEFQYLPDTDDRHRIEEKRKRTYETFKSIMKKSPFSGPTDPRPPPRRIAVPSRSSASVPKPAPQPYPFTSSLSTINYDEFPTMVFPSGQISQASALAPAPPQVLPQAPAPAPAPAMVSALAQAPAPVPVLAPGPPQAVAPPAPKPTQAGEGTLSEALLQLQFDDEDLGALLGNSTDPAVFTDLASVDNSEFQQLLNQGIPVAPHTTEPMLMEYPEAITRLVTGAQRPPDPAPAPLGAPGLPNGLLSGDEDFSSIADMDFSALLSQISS

[2] = system: HCT-116; experiment: Antitumor activity against human HCT-116 cells xenografted in athymic nude BALB/c mouse assessed as reduction in tumor weight at 5 to 15 mg/kg, ip administered every other day and measured every other day for 16 days; type: functional, organism-based; conditions: dose 5-15 mg/kg, time 16.0 day
[3] = Half life in Sprague-Dawley rat at 10 mg/kg, ip measured for 24 hrs by HPLC-MS/MS analysis; type: ADME, organism-based; conditions: in vivo
[4] = molecular target: T1, Nuclear factor NF-kappa-B complex (Homo sapiens); experiment: Inhibition of TNF-alpha induced NFkappaB activation in human HCT-116 cells assessed as downregulation of MCP-1 gene expression pretreated for 24 hrs followed by TNFalpha stimulation and measured after 2 hrs by quantitative RT-PCR analysis; type: cell-based; conditions: dose 1-10 µM, time 26.0 hrs
[5] = molecular target: T1, Nuclear factor NF-kappa-B complex (Homo sapiens); experiment: Inhibition of TNF-alpha induced NFkappaB activation in human HT-29 cells assessed as downregulation of MCP-1 gene expression pretreated for 24 hrs followed by TNFalpha stimulation and measured after 2 hrs by quantitative RT-PCR analysis; type: cell-based; conditions: dose 1-10 µM, time 26.0 hrs
[6] = system: SW480; experiment: Cytotoxicity against human SW480 cells assessed as decrease in cell viability incubated for 48 hrs by SRB assay; type: functional, cell-based; conditions: SW480, 48 h
[7] = system: RAW264.7; experiment: Inhibition of LPS-induced NFkappaB activation in mouse RAW264.7 cells assessed as inhibition of IkappaBalpha phosphorylation preincubated for 24 hrs followed by LPS stimulation for 3 hrs by Western blot analysis; type: cell-based; conditions: dose 1-10 µM, time 27.0 hrs
[8] = system: HT-29; experiment: Induction of apoptosis in human HT-29 cells assessed as early apoptotic cells at 10 uM incubated for 24 hrs by Annexin V-FITC/PI staining based flow cytometric analysis (reference value: 5.29 %); type: functional
[9] = system: HCT-116; experiment: Induction of apoptosis in human HCT-116 cells assessed as viable cells at 5 uM incubated for 24 hrs by Annexin V-FITC/PI staining based flow cytometric analysis (reference value: 88.8%); type: functional; conditions: read-out: Activity
[10] = system: HCT-116; experiment: Induction of apoptosis in human HCT-116 cells assessed as necrotic cells at 10 uM incubated for 24 hrs by Annexin V-FITC/PI staining based flow cytometric analysis (reference value: 1.1 %); type: functional
[11] = system: HCT-116; experiment: Inhibition of colony formation in human HCT-116 cells at 0.25 to 10 uM incubated for 24 hrs and measured after 14 days by crystal violet staining based assay; type: functional, cell-based; conditions: dose 0.25-10 µM, time 14.0 day
[12] = system: HCT-116; experiment: Induction of apoptosis in human HCT-116 cells assessed as viable cells at 5 uM preincubated with Z-VAD-FMK for 1 hr followed by compound addition and measured after 24 hrs by Annexin V-FITC/PI staining based flow cytometric analysis (reference value: 85.5 %); type: functional; conditions: read-out: Activity
[13] = system: Mus musculus; experiment: In vivo inhibition of NFkappaB activation in LPS-induced BALB/c mouse model of endotoxin shock assessed as reduction in TNF-alpha level in serum at 5 mg/kg, ip pretreated for 4 hrs followed by LPS stimulation for 1 hr by ELISA; type: functional, organism-based; conditions: time 5.0 hrs
[14] = system: HT-29; experiment: Antitumor activity against human HT-29 cells xenografted in athymic nude BALB/c mouse assessed as induction of apoptosis by measuring increase in cleaved caspase 3 expression in tumor at 15 mg/kg, ip administered every other day and measured after 14 days by immunohistochemistry analysis; type: functional, organism-based; conditions: time 14.0 day
[15] = system: HT-29; experiment: Induction of apoptosis in human HT-29 cells assessed as viable cells at 10 uM incubated for 24 hrs by Annexin V-FITC/PI staining based flow cytometric analysis (reference value: 93 %); type: functional; conditions: read-out: Activity
[16] = system: HCT-116; experiment: Induction of apoptosis in human HCT-116 cells assessed as early apoptotic cells at 0.5 uM incubated for 24 hrs by Annexin V-FITC/PI staining based flow cytometric analysis (reference value: 7.22 %); type: functional
[17] = system: HCT-116; experiment: Induction of apoptosis in human HCT-116 cells assessed as increase in cleavage of PARP measured for 24 hrs by Western blot analysis; type: functional, cell-based; conditions: dose 0-10 µM
[18] = system: HT-29; experiment: Induction of apoptosis in human HT-29 cells assessed as early apoptotic cells at 5 uM incubated for 24 hrs by Annexin V-FITC/PI staining based flow cytometric analysis (reference value: 4.39 %); type: functional
[19] = system: Mus musculus; experiment: Anti-inflammatory activity in AOM/DSS-induced BALB/c mouse model inflammatory bowel disease assessed as reduction in distortion of glands at 10 mg/kg, ip pretreated with AOM for 7 days further replaced with DSS for 7 days and repeated for 2 times followed by every 2 days compound treatment for […] starting from day 50 by H and E staining based analysis; type: functional, organism-based; conditions: time 21.0 day
[20] = system: HT-29; experiment: Induction of cell cycle arrest in human HT-29 cells assessed as accumulation of cells at G0/G1 phase at 1 uM by RNase/PI staining based flow cytometry analysis (reference value: 50.73 %); type: functional
[21] = system: HEK-293T; experiment: Inhibition of Flag-tagged TAK1/HA-tagged TRAF6 (unknown origin) protein-protein interaction transfected in HEK293T cells at 2 uM incubated for 6 hrs by co-immunoprecipitation method; type: cell-based; conditions: Homo sapiens
[22] = system: HT-29; experiment: Induction of cell cycle arrest in human HT-29 cells assessed as accumulation of cells at S phase at 10 uM by RNase/PI staining based flow cytometry analysis (reference value: 39.34%); type: functional
[23] = Toxicity in athymic nude BALB/c mouse xenografted with human HT-29 cells assessed as pathological changes in spleen at 5 to 15 mg/kg, ip administered every other day and measured after 14 days by hematoxylin and eosin staining-based microscopic analysis; type: organism-based; conditions: in vivo, 336 h, dose 5-15 mg/kg, time 14 day
[24] = system: HCT-116; experiment: Induction of apoptosis in human HCT-116 cells assessed as early apoptotic cells at 0.25 uM incubated for 24 hrs by Annexin V-FITC/PI staining based flow cytometric analysis (reference value: 7.22 %); type: functional
[25] = system: Mus musculus; experiment: Anti-inflammatory activity in AOM/DSS-induced BALB/c mouse model inflammatory bowel disease assessed as reduction in DAI score at 5 to 10 mg/kg, ip pretreated with AOM for 7 days further replaced with DSS for 7 days and repeated for 2 times followed by every 2 days compound treatment for […] starting from day 50 and measured once a week; type: functional, organism-based; conditions: dose 5-10 mg/kg, time 21.0 day
[26] = system: HT-29; experiment: Induction of cell cycle arrest in human HT-29 cells assessed as decrease in P-cdc2 protein expression upto 10 uM incubated for 24 hrs by Western blot analysis; type: functional, cell-based
[27] = system: HCT-116; experiment: Induction of cell cycle arrest in human HCT-116 cells assessed as accumulation of cells at S phase at 10 uM by RNase/PI staining based flow cytometry analysis (reference value: 43.77 %); type: functional
[28] = system: HCT-116; experiment: Induction of apoptosis in human HCT-116 cells assessed as viable cells at 0.25 uM incubated for 24 hrs by Annexin V-FITC/PI staining based flow cytometric analysis (reference value: 88.8%); type: functional; conditions: read-out: Activity
[29] = system: HCT-116; experiment: Induction of autophagic cell death in human HCT-116 cells at 1 to 10 uM pretreated with 3-methyladenine for 1 hr followed by compound addition and measured after 24 hrs by SRB assay; type: functional, cell-based; conditions: dose 1-10 µM

For `C[C@@H]1CC[C@H]2[C@H](C(=O)c3c(O)c([C@@]4(O)CC[C@@H](O)[C@H]5O[C@H]54)cn(O)c3=O)[C@H](C)C=C[C@@H]2C1`, the inhibition [1] was “Active”, the Activity [2] was “Active” and the half-life [3] was 3.73 h. The inhibition [4] was “Dose-Dependent Effect”, the inhibition [5] was “Dose-Dependent Effect” and the IC50 [6] was 570 nM. For the same compound, the inhibition [7] was “Dose-Dependent Effect”, the Activity [8] was 46.2% and the viability at 5 µM [9] was 16.5%. For the same compound, the Activity [10] was 1.56%, the inhibition [11] was “Active” and the viability at 5 µM [12] was 29.5%. The inhibition [13] was “Active”, the Activity [14] was “Active” and the viability at 10 µM [15] was 36.8%. The Activity [16] was 13.2%, the Activity [17] was “Dose-Dependent Effect” and the Activity [18] was 28.3%. The Activity [19] was “Active”, the Activity [20] was 69.17% and the inhibition [21] was “Active”. The Activity [22] was 26.65%, the Activity [23] was “Non-Toxic” and the Activity [24] was 8.93%. For the same compound, the Activity [25] was “Active”, the Activity [26] was “Active” and the Activity [27] was 39.08%. For the same compound, the viability at 0.25 µM [28] was 59.9% and the Activity [29] was “inactive”.
